Here are results for twelve compounds from patent US20010018440A1, “L-beta-dioxolane uridine analogs and methods for treating and preventing virus infections” (Yale University and The University of Georgia Research …, priority 1996, published 2001).

Values after ≈ are worked out from the molar mass of the structure shown. “Also recorded” adds a separate entry of the source. Where two headings read alike, the source gives them in different places.

One series concerns Ellen strain of VZV. The experiment in a line: Plaque reduction assay for Varicella-Zoster virus in HFF cells. It is filed as cell-based. The conditions noted are these: 10 days. As for the experimental part:
(§1) Two days prior to use, human foreskin fibroblast (HiFF) cells were plated into six well plates and incubated at 37° C. with 5% CO2 and 90% humidity. On the date of assay, the drug was made upon MEM with 2% FBS then serially diluted 1:5 in MEM using six concentrations of drug. The initial starting concentration was 100/μg/ml down to 0.03 μg/ml. The virus used for infection was diluted in MEM containing 10% FBS to a desired concentration which gave 20-30 plaques per well. The media was aspirated from the wells and 0.2 ml of virus was added to each well in triplicate with 0.2 ml of media being added to drug toxicity wells. The plates were then incubated for one hour with shaking every fifteen minutes. After incubation, MEM containing the various drug concentrations was added to appropriate wells in a volume of 2.0 ml. Additional media was added again on day five and the cultures incubated for a total of 10 days. At the end of the incubation, the liquid was then aspirated off, stained with 6% neutral red solution for six hours, washed and plaques enumerated using a stereomicroscope. The results are compared with untreated control wells, and EC50 and CC50 values calculated.

Series [1] can be described thus: Neutral red uptake cytotoxicity assay. It is filed as cell-based. The conditions noted are these: human, uninfected human foreskin fibroblast (HFF) cells. As for the experimental part: as §1, with “The results are compared with untreated control wells, and EC50 and CC50 values calculated.” left out
Series [2] relates to EBV. Description: Anti-EBV slot blot assay of EBV DNA in H1 cells. It is filed as cell-based, Epstein-Barr virus. As for the experimental part:
A high yield of BBV producing cell line H1 derived from human P3HR1 cells was used in this study. Cells were cultured in RPMIf medium supplemented with 10% dialyzed fetal bovine serum and 100 μg/ml Kanamycin and were grown at 37° C. in a humidified incubator containing 5% CO2.
H1 cells were maintained in logarithmic phase of growth for two days prior to the initiation of treatment. The H1 cells were seeded in 24 well plates at the density of 2×10^5 cells per well in 2 ml of fresh medium with or without drug treatment and were incubated at 37° C. for 5 days. Following the period of drug treatment the cells were pelleted and used to determine the inhibitory effect of drug on EBV DNA by slot blot assay.
Autoradiographfic results were anlayzed by densitometry. […] See, for example, Yao, et al., Antimic. Agzents and Chemo., July, 1993, p.

For a further series, the system named is mitochondrial DNA. Description: mt DNA content (toxicity to mitochondria, slot blot rehybridization). It is filed as cell-based, human. The text has this: Autoradiographfic results were anlayzed by densitometry. […] See, for example, Yao, et al., Antimic.
A further series concerns cell growth. Description: Cytotoxicity (cell growth).
In series [3] the test system is lactate accumulation in the medium. Description: Lactate accumulation in medium of drug treated cultures.
A short description of series [4]: Stability at different pH's (HPLC). The conditions noted are these: for stability (in words): pH 2. How it is done: In order to explore the possibility of using L-I-OddU and L-Br-OddU orally for the treatment of EBV-associated diseases, its stability at different pH levels is important. L-I-OddU was exposed to different pH solutions as indicated for 3 hr at 37°. The percentage of compound remaining as L-I-OddU was examined using HPLC with a C18 column.

A short description of series [5]: Pharmacokinetics in BDF1 mice. The conditions noted are these: 50 mg/kg po versus ip/iv, preliminary.
Description: At the times indicated in FIG. 5, blood was drawn into a heparinized capillary from the retro orbital plexus of female BDF1 mice. The plasma was separated from the formed elements by centrifugation. Then 100 μl of plasma was mixed with an equal volume of 30% trichloracetic acid and kept on ice for 10 minutes. […] The aqueous phase was moved to a clean tube and extracted again with the trioctylamine:freon mixture. Then 50 μl of the neutralized aqueous phase was injected onto a Perkin Elmer HPLC system. The samples were eluted from an Altech C18 column with an isocratic solvent system of water at 2 ml per min. The concentrations of the unknown samples were determined by comparison with standards of known concentrations.
Series [6] relates to EBV. Conditions: reported in Chu et al. PCT application; cited from earlier work.
The test system of a further series is HBV. Description: HBV assay. It is filed as cell-based. From the text: (§2) Plaque reduction assays used for HSV-1, HSV-2 and CMV have been previously described. See, Gao, et al., Antimic. Agents and Chemo., May, 1990, p. 808-812 (HSV-Plaque); Cheng, et al., Proc. Natl. Acad. Sci. USA, vol. 80, 2767-2770 (May 1983) (CMV plaque reduction assay). The methods for testing against EBV, HBV, and HIV were also used as described previously. See, Yao, et al., Antimic. Agents and Chemo., July, 1993, p.

Another series deals with CMV. The experiment in a line: Plaque reduction assay CMV. It is filed as cell-based. Conditions: Human betaherpesvirus 5.
Source text: as §2

For a further series, the system named is HSV-2. The experiment in a line: Plaque reduction assay HSV-2. It is filed as cell-based. The conditions noted are these: Human alphaherpesvirus 2; HSV-2, plaque reduction.
Source text: as §2

In a further series the test system is HIV. The experiment in a line: HIV assay. The conditions noted are these: Human immunodeficiency virus 1. It is filed as cell-based.
Source text: as §2

The subject of another series is HSV-1. Description: Plaque reduction assay HSV-1. It is filed as cell-based. The conditions noted are these: Human alphaherpesvirus 1; HSV-1, plaque reduction.
Source text: as §2

Setting [7] is: Human alphaherpesvirus 3, 240 h, read-out: EC50.
[8] abbreviates: H1 cells, 5 days, EC50 of Table 2.
The mark [9] stands for this setting: human gammaherpesvirus 4, 120 h, H1 cells, 5 days, EC50 of Table 2, read-out: Anti-EBV EC50.
Where [10] appears, read: H1 cells, 5 days, EC50 of Table 2, read-out: Anti-EBV EC50.
[11] abbreviates: read-out: Cytotoxicity IC50, cell growth.

`Nc1nc2c(ncn2COCCO)c(=O)[nH]1` [ACV (acycloguanine), acyclovir, reference compound]: the EC50 in the series with Ellen strain of VZV (setting [7]) stood at 0.6 µg/mL (≈ 2.66 µM). This compound also displayed a CC50 at 10 days in series [1] of over 100 µg/mL.

For `O=c1[nH]c(=O)n(C2COC(CO)O2)cc1Br` [D-Br-OddU, reference compound], in the series on EBV [2] (setting [8]), the “Anti-EBV EC50” value is “Inactive”.

For `O=c1[nH]c(=O)n(C2COC(CO)O2)cc1I` [D-I-OddU, reference compound], in the series with EBV [2] (setting [8]), the “Anti-EBV EC50” value was “Inactive”.

On to `Nc1nc(O)c2ncn(COC(CO)CO)c2n1` [DHPG, gancyclovir, reference compound], for which the EC50 in the series on EBV [2] (setting [9]) was 5 µM. Also, the “mt DNA Content ID50” value in the series with mitochondrial DNA was “Inactive”. For the same compound, the IC50 in the series on cell growth (human, H1 cells) was 75 µM.

In the case of `O=c1[nH]c(=O)n([C@@H]2CO[C@H](CO)O2)cc1Br` [L-Br-OddU], the “anti-EBV activity (in words)” value in the series with EBV [2] is “most potent”. Besides, the EC50 was 0.2 µM in the series with EBV [2] (setting [10]); 2 µM with EBV [2] (H1 cells, 5 days, second EC50 column of Table 2, read-out: Anti-EBV EC50); 0.8 µg/mL (≈ 2.73 µM) in the series on Ellen strain of VZV. Further, the “mt DNA Content ID50” value in the series with mitochondrial DNA is given as “Inactive”. In addition, in [3], the “induction of lactate accumulation in the medium” value is on record as “lack of induction”. Also, the “% Remaining” value in series [4] (pH1, 3 hr at 37°) was found to be 105%. For the same compound, the “stability (in words)” value in series [4] was “stable”. The “efficiency of oral uptake” value in [5] is listed as “about 60%”. In the series on cell growth (setting [11]), the IC50 was over 100 µM.

As for `O=c1[nH]c(=O)n([C@@H]2CO[C@H](CO)O2)cc1C(F)(F)F` [L-CF3-OddU, (2S,4S)-1-[2-(Etydroxymethyl)-1,3-dioxolan-4-yl]-5-trifluoromethyluracil], the EC50 with EBV [2] (setting [10]) amounted to 3 µM. Moreover, the “mt DNA Content ID50” value in the series on mitochondrial DNA is “Inactive”. Further, the IC50 in the series with cell growth (setting [11]) is over 100 µM.

With `O=c1[nH]c(=O)n([C@@H]2CO[C@H](CO)O2)cc1Cl` [L-CI-OddU, (2S,4S)-1-[2-(Hydroxymethyl)-1,3-dioxolan-4-yl]-5-chlorouracil], the results for the EC50 in the series on EBV [2] (setting [9]) and with Ellen strain of VZV (setting [7]) were 3 µM and 27.9 µg/mL (≈ 112 µM), respectively. The “mt DNA Content ID50” value in the series on mitochondrial DNA is on record as “Inactive”. In the series with cell growth (human, H1 cells), the IC50 is over 100 µM. In series [1], this compound displayed a CC50 at 10 days of over 100 µg/mL.

In the case of `O=c1[nH]c(=O)n([C@@H]2CO[C@H](CO)O2)cc1F` [L-F-OddU, (2S,4S)-1-[2-(Hydroxymethyl)-1,3-dioxolan-4-yl]-5 fluorouracil], the EC50 in the series with EBV [2] (setting [9]) turned out to be 50 µM. Moreover, the “mt DNA Content ID50” value in the series on mitochondrial DNA is “Inactive”. In the series with cell growth (human, H1 cells), this compound registered an IC50 of over 100 µM.

Regarding `Cc1cn([C@H]2O[C@@H](CO)[C@H](O)[C@H]2F)c(=O)[nH]c1=O` [L-FMAU, 2′-fluoro-5-methyl-β-L-arabinofuranosyluridine, reference compound], the “activity against EBV (PCT/US95/01253)” value in the series on EBV [6] is recorded as “good activity”. Besides, the “anti-EBV activity (in words)” value in the series with EBV [2] is given as “active”. In addition, the “activity against HBV (in words)” value with HBV is reported as “active”.

For `O=c1[nH]c(=O)n([C@@H]2CO[C@H](CO)O2)cc1I` [L-I-OddU, (2S,4S)-1-[2-(Hydroxymethyl)-1,3-dioxolan-4-yl]-5-iodouracil], in the series with EBV [2], the “anti-EBV activity (in words)” value was “most potent; also recorded: slightly more potent than L-Br-OddU”. In the series on EBV [2] (comparison with L-FMAU), the “EC50 against EBV relative to L-FMAU” value is given as “at least four times lower than L-FMAU”. Besides, the EC50 was 0.1 µM with EBV [2] (setting [9]); 0.4 µM with EBV [2] (human gammaherpesvirus 4, 120 h, H1 cells, 5 days, second EC50 column of Table 2, read-out: Anti-EBV EC50); 0.1 µM with EBV [2] (human gammaherpesvirus 4, EBV, Table 3, read-out: EC50); over 10 µM in the series on CMV; over 50 µM in the series on HSV-2; 4.2 µg/mL (≈ 12.4 µM) with Ellen strain of VZV (setting [7]). In addition, the EC50 with HBV (Hepatitis B virus, HBV) was over 10 µM; in the series with HIV it was over 100 µM; in the series on HSV-1 it was 50 µM. Besides, the “mt DNA Content ID50” value with mitochondrial DNA is given as “Inactive”. In addition, in series [3], the “induction of lactate accumulation in the medium” value is given as “lack of induction”. Also, the “% Remaining” value in series [4] (pH1, 3 hr at 37°) is 102%; in series [4] (pH2, 3 hr at 37°) it was 102%; in series [4] (pH5, 3 hr at 37°), 102%; in series [4] (pH7, 3 hr at 37°), 99%; in series [4] (pH9, 3 hr at 37°) it was 100%. Besides, the “stability (in words)” value in series [4] is “stable”. In addition, in the series with cell growth (human, H1 cells), the IC50 was over 100 µM. Also, in the series with HBV, the “activity against HBV (in words)” value is listed as “little activity”. The CC50 at 10 days in [1] was over 100 µg/mL.

With `O=c1ccn([C@@H]2CO[C@H](CO)O2)c(=O)[nH]1` [L-OddU, (2S,4S)-1-[2-(Hydroxymethyl)-1,3-dioxolan-4-yl]uracil], the EC50 in the series on EBV [2] (setting [9]) is over 50 µM. Besides, in the series with mitochondrial DNA, the “mt DNA Content ID50” value is listed as “Inactive”. This compound displayed an IC50 in the series with cell growth (human, H1 cells) of over 100 µM.

`Nc1ccn([C@H]2CC[C@@H](CO)O2)c(=O)n1` [ddC, reference compound]: the “Anti-EBV EC50” value in the series on EBV [2] (setting [8]) was “Inactive”. Moreover, the IC50 came to 0.02 µM in the series on mitochondrial DNA (read-out: mt DNA Content ID50) and 20 µM in the series on cell growth (setting [11]).
